Results taken from US12122763B2, “Substituted piperidines for androgen receptor degradation” (UBIX THERAPEUTICS, INC., priority 2020, dated 2024).

What was measured:
Type in all cases: cell-based
AR-V7 = molecular target: T1, AR-V7 (Homo sapiens, UniProt P10275); assay: Reduction of expression of AR splicing variant AR-V7; details: at a concentration of 100 nM
T1 sequence (P10275 1-644 isoform P10275-3): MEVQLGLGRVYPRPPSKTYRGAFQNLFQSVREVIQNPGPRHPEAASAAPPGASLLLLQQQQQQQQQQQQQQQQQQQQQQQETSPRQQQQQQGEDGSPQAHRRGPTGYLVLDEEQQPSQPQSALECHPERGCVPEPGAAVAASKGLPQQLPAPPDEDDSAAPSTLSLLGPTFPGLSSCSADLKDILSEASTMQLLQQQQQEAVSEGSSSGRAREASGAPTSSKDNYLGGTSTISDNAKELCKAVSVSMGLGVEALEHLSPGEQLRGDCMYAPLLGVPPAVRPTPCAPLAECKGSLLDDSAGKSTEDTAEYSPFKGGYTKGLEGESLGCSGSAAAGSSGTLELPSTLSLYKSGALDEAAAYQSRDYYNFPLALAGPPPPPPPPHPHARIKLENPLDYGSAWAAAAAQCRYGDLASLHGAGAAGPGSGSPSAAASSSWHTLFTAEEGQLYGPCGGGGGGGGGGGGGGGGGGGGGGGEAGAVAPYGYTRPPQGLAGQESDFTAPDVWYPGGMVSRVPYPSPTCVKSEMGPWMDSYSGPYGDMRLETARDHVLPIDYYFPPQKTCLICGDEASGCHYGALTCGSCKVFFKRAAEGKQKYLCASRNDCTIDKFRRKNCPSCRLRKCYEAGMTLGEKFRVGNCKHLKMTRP
Source text: In addition, another mechanism by which resistance to existing treatments occurs is the expression of AR splicing variants (eg, AR-V7). The compounds of the present invention are excellent in reducing the expression of these variants (eg, AR-V7), and thus have a better anti-proliferative effect in AR-V7 positive prostate cancer cells. For example, the compounds of Examples 6 and 169 of the present disclosure inhibited the expression of AR-V7 by 87% and 48%, respectively, at a concentration of 100 nM.

[1] = molecular target: T2, Androgen Receptor (AR) protein (Homo sapiens, UniProt P10275, T878A); assay: Androgen Receptor (AR) protein degradation assay in LNCaP cells, western blotting; details: 20 h; for inhibition at 0.01 µM: 0.01 μM compound; for inhibition at 0.1 µM: 0.1 μM compound; for inhibition at 1 µM: 1 μM compound; for inhibition at 10 µM: 10 μM compound
T2 construct: endogenous in cells; host or cells: LNCaP
T2 sequence (P10275 whole entry T878A): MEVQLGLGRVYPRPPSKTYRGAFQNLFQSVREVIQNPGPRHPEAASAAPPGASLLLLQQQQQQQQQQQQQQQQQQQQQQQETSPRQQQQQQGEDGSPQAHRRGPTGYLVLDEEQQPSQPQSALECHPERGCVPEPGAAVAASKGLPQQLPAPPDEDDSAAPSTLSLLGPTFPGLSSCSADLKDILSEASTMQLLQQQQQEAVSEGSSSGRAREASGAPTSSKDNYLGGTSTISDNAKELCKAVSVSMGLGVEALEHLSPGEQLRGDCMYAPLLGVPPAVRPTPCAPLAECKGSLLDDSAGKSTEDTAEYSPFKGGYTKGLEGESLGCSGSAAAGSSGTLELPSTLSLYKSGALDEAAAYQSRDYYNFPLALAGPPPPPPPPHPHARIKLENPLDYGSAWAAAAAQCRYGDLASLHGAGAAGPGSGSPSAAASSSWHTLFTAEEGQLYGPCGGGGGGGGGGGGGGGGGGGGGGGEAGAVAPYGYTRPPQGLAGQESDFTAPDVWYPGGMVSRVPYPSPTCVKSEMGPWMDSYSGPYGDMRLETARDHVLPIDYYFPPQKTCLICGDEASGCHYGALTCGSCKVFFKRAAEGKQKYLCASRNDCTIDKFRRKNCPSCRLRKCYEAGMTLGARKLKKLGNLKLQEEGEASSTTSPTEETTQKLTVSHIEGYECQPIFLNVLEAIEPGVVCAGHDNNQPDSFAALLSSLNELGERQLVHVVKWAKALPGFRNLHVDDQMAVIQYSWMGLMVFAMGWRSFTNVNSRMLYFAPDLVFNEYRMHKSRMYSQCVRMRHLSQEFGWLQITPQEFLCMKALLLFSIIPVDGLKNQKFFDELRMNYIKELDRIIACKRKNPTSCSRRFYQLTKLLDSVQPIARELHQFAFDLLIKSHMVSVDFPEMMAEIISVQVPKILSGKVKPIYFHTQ
T2 sequence (Q96SW2 whole entry partner): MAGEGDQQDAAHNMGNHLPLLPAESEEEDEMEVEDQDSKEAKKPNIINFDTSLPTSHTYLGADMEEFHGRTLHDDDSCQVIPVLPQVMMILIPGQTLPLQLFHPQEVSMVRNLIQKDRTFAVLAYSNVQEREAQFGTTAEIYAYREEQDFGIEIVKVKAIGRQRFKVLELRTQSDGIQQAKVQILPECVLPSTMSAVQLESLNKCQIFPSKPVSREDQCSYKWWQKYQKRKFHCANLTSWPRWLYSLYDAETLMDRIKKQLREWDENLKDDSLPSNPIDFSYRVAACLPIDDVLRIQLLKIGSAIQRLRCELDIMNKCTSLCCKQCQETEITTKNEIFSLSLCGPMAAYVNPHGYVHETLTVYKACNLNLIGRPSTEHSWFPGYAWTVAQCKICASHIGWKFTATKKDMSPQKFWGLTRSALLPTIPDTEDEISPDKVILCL
In short: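 LNCaP prostate cancer cells were cultured 3 days, then treated with compound for 20 h. Lysates in 1% SDS buffer were normalised by BCA, and 8 μg protein was run on 4–12% Bis-Tris gels. AR was immunoblotted with chemiluminescence, using GAPDH/β-actin as loading controls.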

T877A AR mutant = T877A AR mutant (Homo sapiens, UniProt P10275, T878A); assay: Degradation of AR mutant T877A; details: at a concentration of 100 nM
Sequence of T877A AR mutant (P10275 whole entry T878A): as the sequence (P10275 whole entry T878A) above
Sequence of T877A AR mutant (Q96SW2 whole entry partner): as the sequence (Q96SW2 whole entry partner) above
Source text: On the other hand, the compounds of the present invention have excellent degradation activity against AR mutants (T877A, M896V, F876L, H874Y, L702H, W741C, etc.). Since resistance to existing anti-androgen receptor drugs can be caused by AR mutation, the excellent AR mutant-degrading activity of the compounds of the present invention can help overcome resistance to existing drugs.

Structure (SMILES)	inhibited the expression of AR-V7 (AR-V7) [%]	inhibition at 0.01 µM [1] [%]	inhibition at 0.1 µM [1] [%]	inhibition at 1 µM [1] [%]	inhibition at 10 µM [1] [%]	degradation activity for the T877A AR mutant (T877A AR mutant) [%]
N#Cc1ccc(N2CCC(C(=O)Nc3ccc(N4CCC(CN5CCN(CC6CCN(c7ccc8c(c7)C(=O)N(C7CCC(=O)NC7=O)C8=O)CC6)CC5)CC4)cn3)CC2)cc1C(F)(F)F (stereo not shown) [Example 6, 1-(4-cyano-3-(trifluoromethyl)phenyl)-N-(5-(4-((4-((1-(2-(2,6-dioxopiperidin-3-yl)-1,3-dioxoisoindolin-5-yl)piperidin-4-yl)methyl)piperazin-1-yl)methyl)piperidin-1-yl)pyridin-2-yl)piperidine-4-carboxamide]	87	83	99	99	97	73
N#Cc1ccc(N2CCC(C(=O)Nc3ccc(N4CCC(CN5CC6(CCN(c7ccc8c(c7)C(=O)N(C7CCC(=O)NC7=O)C8=O)CC6)C5)CC4)cn3)CC2)cc1C(F)(F)F (stereo not shown) [Example 49, 1-(4-cyano-3-(trifluoromethyl)phenyl)-N-(5-(4-((7-(2-(2,6-dioxopiperidin-3-yl)-1,3-dioxoisoindolin-5-yl)-2,7-diazaspiro[3.5]nonan-2-yl)methyl)piperidin-1-yl)pyridin-2-yl)piperidine-4-carboxamide]	–	68	98	99	99	46
N#Cc1ccc(N2CCC(C(=O)Nc3ccc(OC4CCN(CC5CCN(c6ccc7c(c6)C(=O)N(C6CCC(=O)NC6=O)C7=O)CC5)CC4)cn3)CC2)cc1C(F)(F)F (stereo not shown) [Example 169, 1-(4-cyano-3-(trifluoromethyl)phenyl)-N-(5-((1-((1-(2-(2,6-dioxopiperidin-3-yl)-1,3-dioxoisoindolin-5-yl)piperidin-4-yl)methyl)piperidin-4-yl)oxy)pyridin-2-yl)piperidine-4-carboxamide]	48	85	99	99	–	–
N#Cc1ccc(N2CCC(C(=O)Nc3ccc(CC4CCN(CC5CCN(c6cc7c(cc6F)C(=O)N(C6CCC(=O)NC6=O)C7=O)CC5)CC4)cn3)CC2)cc1C(F)(F)F (stereo not shown) [Example 182, 1-(4-cyano-3-(trifluoromethyl)phenyl)-N-(5-((1-((1-(2-(2,6-dioxopiperidin-3-yl)-6-fluoro-1,3-dioxoisoindolin-5-yl)piperidin-4-yl)methyl)piperidin-4-yl)methyl)pyridin-2-yl)piperidine-4-carboxamide]	–	72	96	98	–	–
N#Cc1ccc(N2CCC(C(=O)Nc3ccc(OCC4CCN(CC5CN(c6ccc7c(c6)C(=O)N(C6CCC(=O)NC6=O)C7=O)C5)CC4)cn3)CC2)cc1C(F)(F)F (stereo not shown) [Example 183, 1-(4-cyano-3-(trifluoromethyl)phenyl)-N-(5-((1-((1-(2-(2,6-dioxopiperidin-3-yl)-1,3-dioxoisoindolin-5-yl)azetidin-3-yl)methyl)piperidin-4-yl)methoxy)pyridin-2-yl)piperidine-4-carboxamide]	–	72	87	93	–	–
CC1(CN2CCC(COc3ccc(NC(=O)C4CCN(c5ccc(C#N)c(C(F)(F)F)c5)CC4)nc3)CC2)CN(c2ccc3c(c2)C(=O)N(C2CCC(=O)NC2=O)C3=O)C1 (stereo not shown) [Example 184, 1-(4-cyano-3-(trifluoromethyl)phenyl)-N-(5-((1-((1-(2-(2,6-dioxopiperidin-3-yl)-1,3-dioxoisoindolin-5-yl)-3-methylazetidin-3-yl)methyl)piperidin-4-yl)methoxy)pyridin-2-yl)piperidine-4-carboxamide]	–	72	91	97	–	–
N#Cc1ccc(N2CCC(C(=O)Nc3ccc(OCC4CN(CC5CCN(c6ccc7c(c6)C(=O)N(C6CCC(=O)NC6=O)C7=O)CC5)C4)cn3)CC2)cc1C(F)(F)F (stereo not shown) [Example 185, 1-(4-cyano-3-(trifluoromethyl)phenyl)-N-(5-((1-((1-(2-(2,6-dioxopiperidin-3-yl)-1,3-dioxoisoindolin-5-yl)piperidin-4-yl)methyl)azetidin-3-yl)methoxy)pyridin-2-yl)piperidine-4-carboxamide]	–	85	97	99	–	–
CC1(COc2ccc(NC(=O)C3CCN(c4ccc(C#N)c(C(F)(F)F)c4)CC3)nc2)CN(CC2CCN(c3ccc4c(c3)C(=O)N(C3CCC(=O)NC3=O)C4=O)CC2)C1 (stereo not shown) [Example 186, 1-(4-cyano-3-(trifluoromethyl)phenyl)-N-(5-((1-((1-(2-(2,6-dioxopiperidin-3-yl)-1,3-dioxoisoindolin-5-yl)piperidin-4-yl)methyl)-3-methylazetidin-3-yl)methoxy)pyridin-2-yl)piperidine-4-carboxamide]	–	66	94	96	–	–
N#Cc1ccc(N2CCC(C(=O)Nc3ccc(OC4CCN(CC5CCN(c6ccc7c(c6)C(=O)N(C6CCC(=O)NC6=O)C7=O)CC5)CC4)nn3)CC2)cc1C(F)(F)F (stereo not shown) [Example 187, 1-(4-cyano-3-(trifluoromethyl)phenyl)-N-(6-((1-((1-(2-(2,6-dioxopiperidin-3-yl)-1,3-dioxoisoindolin-5-yl)piperidin-4-yl)methyl)piperidin-4-yl)oxy)pyridazin-3-yl)piperidine-4-carboxamide]	–	63	90	–	–	–
N#Cc1ccc(N2CCC(C(=O)Nc3ccc(CN4CCC(CN5CCN(c6cc7c(cc6F)C(=O)N(C6CCC(=O)NC6=O)C7=O)CC5)CC4)cn3)CC2)cc1C(F)(F)F (stereo not shown) [Example 188, 1-(4-cyano-3-(trifluoromethyl)phenyl)-N-(5-((4-((4-(2-(2,6-dioxopiperidin-3-yl)-6-fluoro-1,3-dioxoisoindolin-5-yl)piperazin-1-yl)methyl)piperidin-1-yl)methyl)pyridin-2-yl)piperidine-4-carboxamide]	–	1	45	–	–	–
N#Cc1ccc(N2CCC(C(=O)Nc3ccc(CCN4CCC(CN5CCN(c6cc7c(cc6F)C(=O)N(C6CCC(=O)NC6=O)C7=O)CC5)CC4)cn3)CC2)cc1C(F)(F)F (stereo not shown) [Example 189, 1-(4-cyano-3-(trifluoromethyl)phenyl)-N-(5-(2-(4-((4-(2-(2,6-dioxopiperidin-3-yl)-6-fluoro-1,3-dioxoisoindolin-5-yl)piperazin-1-yl)methyl)piperidin-1-yl)ethyl)pyridin-2-yl)piperidine-4-carboxamide]	–	8	79	–	–	–
N#Cc1ccc(N2CCC(C(=O)Nc3ccc(N4CC(CN5CCC(CN6CCN(c7ccc8c(c7)C(=O)N(C7CCC(=O)NC7=O)C8=O)CC6)CC5)C4)cn3)CC2)cc1C(F)(F)F (stereo not shown) [Example 190, 1-(4-cyano-3-(trifluoromethyl)phenyl)-N-(5-(3-((4-((4-(2-(2,6-dioxopiperidin-3-yl)-1,3-dioxoisoindolin-5-yl)piperazin-1-yl)methyl)piperidin-1-yl)methyl)azetidin-1-yl)pyridin-2-yl)piperidine-4-carboxamide]	–	-11	61	–	–	–
N#Cc1ccc(N2CCC(C(=O)Nc3ccc(N4CC(CN5CCC(CN6CCN(c7cc8c(cc7F)C(=O)N(C7CCC(=O)NC7=O)C8=O)CC6)CC5)C4)cn3)CC2)cc1C(F)(F)F (stereo not shown) [Example 191, 1-(4-cyano-3-(trifluoromethyl)phenyl)-N-(5-(3-((4-((4-(2-(2,6-dioxopiperidin-3-yl)-6-fluoro-1,3-dioxoisoindolin-5-yl)piperazin-1-yl)methyl)piperidin-1-yl)methyl)azetidin-1-yl)pyridin-2-yl)piperidine-4-carboxamide]	–	3	84	–	–	–
N#Cc1ccc(N2CCC(C(=O)Nc3ccc(N4CCC(CCN5CCN(c6cc7c(cc6F)C(=O)N(C6CCC(=O)NC6=O)C7=O)CC5)CC4)cn3)CC2)cc1C(F)(F)F (stereo not shown) [Example 192, 1-(4-cyano-3-(trifluoromethyl)phenyl)-N-(5-(4-(2-(4-(2-(2,6-dioxopiperidin-3-yl)-6-fluoro-1,3-dioxoisoindolin-5-yl)piperazin-1-yl)ethyl)piperidin-1-yl)pyridin-2-yl)piperidine-4-carboxamide]	–	-11	15	67	–	–
